Experimental data reported in ChEMBL document CHEMBL4265889, “Design and synthesis of tetrahydropyridopyrimidine based Toll-Like Receptor (TLR) 7/8 dual agonists” (Bioorg Med Chem Lett, 2018).

Tests used:
Format in all cases: cell-based
[1] = biological target: T1, Toll-like receptor 7 (Homo sapiens) (UniProt Q9NYK1); assay: Agonist activity at human TLR7 expressed in HEK293 cells after 6 hrs by NFkappaB-luciferase reporter gene assay
T1 sequence (whole entry): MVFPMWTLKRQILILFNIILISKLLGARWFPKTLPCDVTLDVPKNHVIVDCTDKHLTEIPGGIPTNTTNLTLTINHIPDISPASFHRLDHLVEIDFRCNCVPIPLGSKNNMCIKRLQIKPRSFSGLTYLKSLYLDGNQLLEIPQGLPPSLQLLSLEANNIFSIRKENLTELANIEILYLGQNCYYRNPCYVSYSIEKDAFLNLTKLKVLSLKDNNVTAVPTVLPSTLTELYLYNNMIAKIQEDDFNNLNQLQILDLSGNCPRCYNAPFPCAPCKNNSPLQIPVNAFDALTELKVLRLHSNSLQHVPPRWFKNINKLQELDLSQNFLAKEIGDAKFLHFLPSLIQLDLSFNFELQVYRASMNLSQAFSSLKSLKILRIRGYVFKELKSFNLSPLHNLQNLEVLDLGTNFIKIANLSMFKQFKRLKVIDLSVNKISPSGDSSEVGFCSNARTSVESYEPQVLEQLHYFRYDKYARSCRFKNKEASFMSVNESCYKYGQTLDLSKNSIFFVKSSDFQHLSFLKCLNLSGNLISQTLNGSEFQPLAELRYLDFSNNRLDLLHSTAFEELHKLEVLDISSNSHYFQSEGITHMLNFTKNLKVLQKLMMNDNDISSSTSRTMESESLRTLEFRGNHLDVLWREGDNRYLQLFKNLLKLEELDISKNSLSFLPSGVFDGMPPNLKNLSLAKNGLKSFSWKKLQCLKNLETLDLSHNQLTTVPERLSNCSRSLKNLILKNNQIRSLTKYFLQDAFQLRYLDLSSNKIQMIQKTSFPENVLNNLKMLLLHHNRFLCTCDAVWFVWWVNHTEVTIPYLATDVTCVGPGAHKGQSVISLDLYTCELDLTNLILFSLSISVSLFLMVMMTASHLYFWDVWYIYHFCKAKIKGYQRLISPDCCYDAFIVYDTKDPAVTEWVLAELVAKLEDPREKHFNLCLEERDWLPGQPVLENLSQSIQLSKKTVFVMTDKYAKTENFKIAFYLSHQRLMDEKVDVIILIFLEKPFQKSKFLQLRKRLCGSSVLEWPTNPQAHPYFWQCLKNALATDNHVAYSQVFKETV

[2] = biological target: T2, Toll-like receptor 8 (Homo sapiens) (UniProt Q9NR97); assay: Agonist activity at human TLR8 expressed in HEK293 cells after 6 hrs by NFkappaB-luciferase reporter gene assay
T2 sequence (whole entry): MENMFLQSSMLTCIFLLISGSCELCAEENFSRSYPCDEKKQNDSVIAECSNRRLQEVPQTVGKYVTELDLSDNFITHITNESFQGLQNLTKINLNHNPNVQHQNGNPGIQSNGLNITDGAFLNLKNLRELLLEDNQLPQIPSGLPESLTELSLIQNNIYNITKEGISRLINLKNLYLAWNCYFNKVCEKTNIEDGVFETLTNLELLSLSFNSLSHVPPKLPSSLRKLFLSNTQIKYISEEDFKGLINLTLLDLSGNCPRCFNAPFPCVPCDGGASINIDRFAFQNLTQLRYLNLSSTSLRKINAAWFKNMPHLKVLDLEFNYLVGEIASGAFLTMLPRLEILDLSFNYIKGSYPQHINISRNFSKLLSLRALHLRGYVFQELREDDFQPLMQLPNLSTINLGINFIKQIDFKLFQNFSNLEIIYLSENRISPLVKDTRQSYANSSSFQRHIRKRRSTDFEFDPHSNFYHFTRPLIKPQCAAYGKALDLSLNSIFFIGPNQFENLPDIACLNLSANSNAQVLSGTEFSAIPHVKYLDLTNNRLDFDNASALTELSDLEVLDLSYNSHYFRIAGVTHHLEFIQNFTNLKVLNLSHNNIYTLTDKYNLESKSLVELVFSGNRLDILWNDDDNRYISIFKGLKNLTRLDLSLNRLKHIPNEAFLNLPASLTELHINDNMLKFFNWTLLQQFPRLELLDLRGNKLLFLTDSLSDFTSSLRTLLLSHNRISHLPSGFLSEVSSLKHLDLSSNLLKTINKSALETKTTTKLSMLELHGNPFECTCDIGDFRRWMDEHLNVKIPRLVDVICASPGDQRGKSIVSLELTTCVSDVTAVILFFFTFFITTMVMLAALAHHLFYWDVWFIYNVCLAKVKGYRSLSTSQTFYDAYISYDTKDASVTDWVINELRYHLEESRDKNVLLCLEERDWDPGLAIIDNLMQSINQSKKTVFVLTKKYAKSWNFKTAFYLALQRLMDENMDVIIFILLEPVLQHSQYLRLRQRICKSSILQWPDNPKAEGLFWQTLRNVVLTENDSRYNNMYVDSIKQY

[3] = Cytotoxicity against HEK293 cells transfected with the CMV-TLR7 construct assessed as reduction in cell viability after 6 hrs by ATPlite assay; settings: human
[4] = biological target: T1, Toll-like receptor 7 (Homo sapiens); assay: Agonist activity at TLR7 in human PBMC assessed as suppression of HCV replicon replication in human HuH7 luc/neo cells harboring RNA encoding bicistronic expression construct comprising wild type HCV type 1b NS3-NS5B regions exposed to conditioned media from compound treated PBMCs after 24 hrs by luciferase reporter gene assay

Compound	MEC [1]	MEC [2]	CC50 at 6 h [3]	MEC [4]
CCCCNc1nc(N)nc2c1CN(C(=O)c1ccccn1)CC2	9.5 µM	2.9 µM	> 24 µM	2.21 µM
CCCCNc1nc(N)nc2c1CN(Cc1cccs1)CC2	2.5 µM	0.14 µM	> 24 µM	0.16 µM
CCCCNc1nc(N)nc2c1CN(Cc1ccc(C(F)(F)F)cc1)CC2	2.8 µM	0.23 µM	> 24 µM	0.54 µM
CCCCNc1nc(N)nc2c1CN(Cc1cccc3ccccc13)CC2	1.3 µM	0.43 µM	> 24 µM	0.43 µM
CCCCNc1nc(N)nc2c1CN(C(=O)c1scnc1C)CC2	13 µM	5.6 µM	> 24 µM	2.23 µM
CCCCNc1nc(N)nc2c1CN(C(C)=O)CC2	4.9 µM	0.5 µM	> 24 µM	–
CCCCNc1nc(N)nc2c1CN(Cc1ccccc1Cl)CC2	1.5 µM	0.05 µM	> 24 µM	0.15 µM
CCCCNc1nc(N)nc2c1CN(C(=O)C(C)C)CC2	8.1 µM	1.6 µM	> 24 µM	1.8 µM
CCCCNc1nc(N)nc2c1CN(Cc1ccc(-c3ccccc3)cc1)CC2	14 µM	0.5 µM	> 24 µM	4.49 µM
CCCCNc1nc(N)nc2c1CNCC2	> 25 µM	7.2 µM	> 24 µM	–
CCCCNc1nc(N)nc2c1CN(Cc1ccccn1)CC2	3.3 µM	0.07 µM	> 24 µM	0.14 µM
CCCCNc1nc(N)nc2c1CN(C(=O)c1cnc(C)cn1)CC2	11 µM	6.8 µM	> 24 µM	1.07 µM
CCCCNc1nc(N)nc2c1CCN(Cc1ccccc1)C2	11 µM	0.4 µM	> 24 µM	–
CCCCNc1nc(N)nc2c1CCN(C)C2	10 µM	0.2 µM	> 24 µM	–
CCCCNc1nc(N)nc2c1CN(Cc1ccccc1)CC2	1.6 µM	0.06 µM	> 24 µM	–
CCCCNc1nc(N)nc2c1CN(CCc1ccccc1)CC2	1.8 µM	0.2 µM	> 24 µM	–
CCCCNc1nc(N)nc2c1CN(Cc1cccc(OC)c1Cl)CC2	1 µM	0.04 µM	> 24 µM	0.05 µM
CCCCNc1nc(N)nc2c1CN(Cc1cccc(Cl)c1Cl)CC2	1.5 µM	0.18 µM	> 24 µM	0.25 µM
CCCCNc1nc(N)nc2c1CN(Cc1c[nH]c3ccccc13)CC2	> 20 µM	0.22 µM	> 24 µM	0.18 µM
CCCCNc1nc(N)nc2c1CN(C(=O)c1ccccc1)CC2	1.5 µM	1.4 µM	> 24 µM	–
CCCCNc1nc(N)nc2c1CN(C)CC2	9.6 µM	0.03 µM	> 24 µM	–
CCCCNc1nc(N)nc2c1CN(Cc1ccc(C(C)(C)C)cc1)CC2	19 µM	0.66 µM	> 24 µM	2.79 µM
CCCCNc1nc(N)nc2c1CN(C(=O)c1cocn1)CC2	0.7 µM	0.2 µM	> 24 µM	0.17 µM
CCCCNc1nc(N)nc2c1CCN(S(C)(=O)=O)C2	20 µM	0.8 µM	> 24 µM	–
CCCCNc1nc(N)nc2c1CN(S(C)(=O)=O)CC2	> 25 µM	9.9 µM	> 24 µM	–
CCCCNc1nc(N)nc2c1CCNC2	8.9 µM	0.6 µM	> 24 µM	–
CCOCc1nc2c(N)nc3ccccc3c2n1CC(C)(C)O	0.1 µM	0.3 µM	–	–
CCCCNc1nc(N)nc2c1CCN(CCc1ccccc1)C2	6.5 µM	0.2 µM	> 24 µM	–
CCCCNc1nc(N)nc2c1CCN(C(C)=O)C2	5.8 µM	0.4 µM	> 24 µM	–
